In patent publication US10351530B2, “Arylcyclohexyl pyrazoles as NRF2 regulators” (GlaxoSmithKline Intellectual Property Development Limited, priority 2015, dated 2019) one finds IC50 and EC50 data, which are given here for 9 compounds.

One assay addresses T1, NRF2/Keap1 (Homo sapiens, UniProt Q14145).
T1 construct: full length NRF2 protein and full length Keap1 protein (Keap1 exists a dimer) are used
Put plainly: NRF2-Keap1 TR-FRET Assay (full length NRF2 and full length Keap1). Format: binding. Particulars: 25 nM Keap1-FlagHis, 50 nM biotin-NRF2 added. The text has this:
In the NRF2-Keap1 TR-FRET (time-resolved fluorescence resonance energy transfer) assay, full length NRF2 protein and full length Keap1 protein (Keap1 exists a dimer) are used. The assay detects the ability of compound to displace the binding of FlagHis-tagged Keap1 with biotinylated, Avi-tagged NRF2 protein. Biotin-NRF2 binds to streptavidin-europium (a component of the detection mix) and Keap1-FlagHis is recognized by anti-Flag APC (allophycocyanin) antibody (also a component of the detection mix). If binding occurs between the two proteins, there will be an energy transfer from the Eu+3 (donor) at 615 nm to the APC (acceptor) at 665 nm. A potential Keap1 inhibitor will cause a reduction in the TR-FRET signal by interfering with the binding of Keap1 to NRF2.
One hundred nanoliters of 100× compound dose response curves (serial 3-fold dilutions) in DMSO are stamped using an Echo liquid handling system (Labcyte) into 384-well, low volume, black assay plates (Greiner, #784076), with DMSO in columns 6 and 18. The top concentration of compound is located in columns 1 and 13. All reagents are diluted in assay buffer (50 mM Tris, pH 8.0, 5 mM MgCl2, 100 mM NaCl, 0.005% BSA, 1 mM DTT, and 2 mM CHAPS). The BSA, DTT, and CHAPS are added to the assay buffer on the day of assay. Using a Multidrop Combi (Thermo Electron Corporation) equipped with a metal tip dispenser, 5 ul of 25 nM Keap1-FlagHis protein is added to all wells of the compound plate, with the exception of the wells in column 18. Wells in column 18 receive 5 ul of assay buffer instead. Plates are centrifuged at 500 rpm for 1 minute, covered with a plate lid, and incubated at 37° C. for 2.25 hours. Plates are then removed from the incubator and allowed to cool to RT for 15 minutes. Five microliters of 50 nM biotin-NRF2 protein is then added to all wells of the plates and the plates are spun at 500 rpm for 1 minute, followed by incubating at 4° C. for 1.25 hours. The plates are then allowed to warm to RT for 15 minutes, followed by the addition of 10 ul of detection mix (1 nM Streptavidin Eu+ W1024 and 5 ug/ml mouse anti-DYKDDDDK IgG conjugated to SureLight APC antibody; both from Columbia Biosciences) to all wells. Plates are spun at 500 rpm for 1 minute, incubated for 1 hour at RT, and read on an Envision plate reader using a 320 nm excitation filter and 615 nm and 665 nm emission filters. Compound response (% inhibition) and potency (pIC50) are calculated based on the ratio of the two emissions (665 nm/615 nm) and then the transformed data is normalized against controls in the assay (control 1=1% DMSO in the presence of NRF2 and Keap1 protein and control 2=1% DMSO in the absence of protein). Data analysis is handled using the software package Abase XE (Surrey, United Kingdom). The % inhibition values are calculated from the ratio (transformed) data by the equation: 100−(100*(compound response-average control 2)/(average control 1−average control 2)).
For calculation of pIC50s, Abase XE uses a four parameter equation.

Assay [1] deals with NQO1 specific enzyme activity in BEAS-2B cells. Put plainly: BEAS-2B NQO1 MTT Assay. It is filed as cell-based. The following applies: NQO1 specific activity induction. The text has this:
NAD(P)H:quinone oxidoreductase 1 (NQO1), also called DT diaphorase, is a homodimeric FAD-containing enzyme that catalyzes obligatory NAD(P)H-dependent two-electron reductions of quinones and protects cells against the toxic and neoplastic effects of free radicals and reactive oxygen species arising from one-electron reductions. The transcription of NQO1 is finely regulated by NRF2, and thus NQO1 activity is a good marker for NRF2 activation. On day one, frozen BEAS-2B cells (ATCC) are thawed in a water bath, counted, and re-suspended at a concentration of 250,000 cells/mL. Fifty microliters of cells are plated in 384 well black clear-bottomed plates. Plates are incubated at 37° C., 5% CO2 overnight. On day two, plates are centrifuged and 50 nL of compound or controls are added to the cells. Plates are then incubated at 37° C., 5% CO2 for 48 hours. On day four, medium is aspirated from the plate and crude cell lysates are made by adding 13 uL of 1× Cell Signaling Technologies lysis buffer with 1 Complete, Mini, EDTA-free Protease Inhibitor Tablet (Roche) for each 10 mL of lysis buffer. After lysis plates are incubated for 20 minutes at room temperature. Two microliters of lysate are removed for use in Cell Titer Glo assay (Promega) and MTT cocktail is prepared (Prochaska et. al. 1998) for measurement of NQO1 activity. Fifty microliters of MTT cocktail is added to each well, plate is centrifuged, and analyzed on an Envision plate reader (Perkin Elmer) using Absorbance 570 nm label for 30 minutes. Product formation is measured kinetically and the pEC50 of NQO1 specific activity induction is calculated by plotting the change in absorbance (Delta OD/min) versus the log of compound concentration followed by 3-parameter fitting.

The next assay has as its target T2, Keap1/NRF2 (Homo sapiens, UniProt Q14145).
T2 construct: Keap1 (321-609) is diluted to 40 nM (2×) in 1× assay buffer
Kind of assay: NRF2-Keap1 FP Assay (Kelch domain (321-609) of Keap1, TAMRA-labeled NRF2 ETGE peptide). It is filed as binding. The following applies: Keap1 (321-609) 20 nM, Tamra labeled peptide 8 nM. From the text:
One model for the NRF2-Keap1 interaction is through two binding sites in the Neh2 domain on NRF2. The two sites are referred to as the DLG binding motif (latch domain, uM affinity) and the ETGE binding motif (hinge domain, nM affinity). The Keap1 protein consists of an N-terminal region (NTR), a broad complex, tramtrack, and brick a′ brac domain (BTB), an intervening region (IVR), a double glycine repeat domain (DGR or Kelch), and a C-terminal region. The DLG and ETGE motifs of NRF2's Neh2 domain bind to the Kelch domain of Keap1 at different affinities. In the Keap1 Kelch fluorescence polarization (FP) assay, a TAMRA-labeled 16 mer peptide (AFFAQLQLDEETGEFL) containing the ETGE motif of NRF2 and the Kelch domain (321-609) of Keap1 is used. The assay determines if a compound interferes with the binding between Keap1 […] and the TAMRA-labeled peptide. Binding of TAMRA-labeled NRF2 peptide to Keap1 (321-609) results in a high FP signal. If a compound interferes with the binding between the peptide and the protein, it will cause the assay signal to decrease. Thus, assay signal is inversely proportional to binding inhibition.
100 nl of 100× compound dose response curves (serial 3-fold dilutions) in DMSO are stamped using an Echo liquid handling system (Labcyte) into 384-well low volume black assay plates (Greiner, #784076), with DMSO in columns 6 and 18. The top concentration of compound is located in columns 1 and 13. Keap1 (321-609) is diluted to 40 nM (2×) in 1× assay buffer (50 mM Tris, pH 8.0, 100 mM NaCl, 5 mM MgCl2, 1 mM DTT, 2 mM CHAPS, and 0.005% BSA) and 5 ul is added using a Multidrop Combi (Thermo Electron Corporation) equipped with a metal tip dispenser to all wells of the compound plate, except column 18. Column 18 receives only 5 ul of assay buffer. Immediately, 5 uL of 16 nM (2×) of Tamra labeled peptide (AFFAQLQLDEETGEFL, 21st Century Biochemicals) is added to all wells of the plate. The plates are spun at 500 rpm for 1 min, incubated for 1 hr at room temperature, and read on an Analyst GT (Molecular Devices) equipped with excitation (530/25 nm) and emission (580/10 nm) filters designed for Tamra probes. A 561 nm dichroic mirror is also used in the Analyst. The final assay concentrations of Keap1 (321-609) and Tamra labeled peptide are 20 nM and 8 nM, respectively. Fluorescence measurements, represented as mP, are used in the transformation of the data. Compound activity is calculated based on percent inhibition, normalized against controls in the assay (Control 1 contains the Tamra peptide and Keap1 (321-609) together (0% response) and control 2 contains the Tamra peptide alone (100% response)). Data analysis is handled using the software package Abase XE (Surrey, United Kingdom. The % inhibition values are calculated by the equation: 100−(100*((compound response-average control 2)/(average control 1−average control 2))). For calculation of pIC50s, Abase XE uses a four parameter equation.

T1 sequence (Q14145 whole entry): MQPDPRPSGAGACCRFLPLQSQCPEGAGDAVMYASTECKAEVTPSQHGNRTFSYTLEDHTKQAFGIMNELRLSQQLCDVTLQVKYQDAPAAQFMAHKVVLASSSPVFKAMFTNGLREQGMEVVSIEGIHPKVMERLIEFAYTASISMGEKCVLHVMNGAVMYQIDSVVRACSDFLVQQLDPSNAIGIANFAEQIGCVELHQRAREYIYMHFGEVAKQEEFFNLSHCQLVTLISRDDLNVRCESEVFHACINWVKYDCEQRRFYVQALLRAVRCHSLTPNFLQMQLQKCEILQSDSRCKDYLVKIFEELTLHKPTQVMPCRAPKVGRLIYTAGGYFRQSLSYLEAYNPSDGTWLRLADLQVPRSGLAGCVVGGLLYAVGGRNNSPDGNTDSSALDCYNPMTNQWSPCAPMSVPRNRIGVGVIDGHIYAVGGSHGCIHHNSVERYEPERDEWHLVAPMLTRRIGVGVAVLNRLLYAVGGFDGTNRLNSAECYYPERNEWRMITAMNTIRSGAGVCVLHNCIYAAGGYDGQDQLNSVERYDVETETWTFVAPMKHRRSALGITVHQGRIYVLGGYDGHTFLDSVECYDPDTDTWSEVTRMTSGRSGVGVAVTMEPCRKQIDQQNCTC
T2 sequence (Q14145 321-609): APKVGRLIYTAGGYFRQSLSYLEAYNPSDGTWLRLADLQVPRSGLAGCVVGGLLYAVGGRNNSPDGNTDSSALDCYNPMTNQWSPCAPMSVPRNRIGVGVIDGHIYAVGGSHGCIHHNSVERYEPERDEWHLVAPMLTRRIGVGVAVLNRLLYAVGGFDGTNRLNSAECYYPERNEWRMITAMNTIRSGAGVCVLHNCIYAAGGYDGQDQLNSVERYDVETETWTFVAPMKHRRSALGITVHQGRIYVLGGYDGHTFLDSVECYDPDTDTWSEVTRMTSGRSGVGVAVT

On to `CCCC1CCc2cnn([C@@H]3CCC[C@H](c4cccc(-n5ncc(C(=O)O)c5C5CC5)c4)C3)c21` (mixture of isomers) [Example 16, 5-Cyclopropyl-1-[3-(3-{6-propyl-1H,4H,5H,6H-cyclopenta[c]pyrazol-1-yl}cyclohexyl)phenyl]-1H-pyrazole-4-carboxylic Acid], for which the IC50 was 1 to 10 µM on NRF2/Keap1 and 0.1 to 1 µM against Keap1/NRF2. In addition, the EC50 in assay [1] (Homo sapiens, BEAS-2B, 48 h) lay in the range of 1 to 10 µM.

In the case of `CC1(C)CCc2cnn([C@H]3CCC[C@@H](c4cccc(-n5ncc(C(=O)O)c5C5CC5)c4)C3)c21` (racemic) [Example 24, 5-Cyclopropyl-1-(3-(-3-(6,6-dimethyl-5,6-dihydrocyclopenta[c]pyrazol-1(4H)-yl)cyclohexyl)phenyl)-1H-pyrazole-4-carboxylic Acid], the IC50 at NRF2/Keap1 lay within 1 to 10 µM; against Keap1/NRF2 it was 0.1 to 1 µM. Besides, the EC50 in assay [1] (Homo sapiens, BEAS-2B, 48 h) lay within 1 to 10 µM.

Turning to `CC1CCN(C(=O)C2CCCC(c3cccc(-n4ncc(C(=O)O)c4C4CC4)c3)C2)C1` (racemic) [Example 25, 5-Cyclopropyl-1-{3-[3-(3-methyl-pyrrolidine-1-carbonyl)-cyclohexyl]-phenyl}-1H-pyrazole-4-carboxylic Acid], the IC50 at NRF2/Keap1 lay in the range of 1 to 10 µM; on Keap1/NRF2 it was 0.1 to 1 µM. The same compound displayed a concentration giving a half-maximal response (EC50) in assay [1] (Homo sapiens, BEAS-2B, 48 h) of 1 to 10 µM.

With `CCOC[C@@H]1CCCN1C(=O)C1CCCC(c2cccc(-n3ncc(C(=O)O)c3C3CC3)c2)C1` (single isomer, unassigned) [Example 18h], the IC50 against NRF2/Keap1 and against Keap1/NRF2 was 1 to 10 µM each time. The concentration for a half-maximal effect (EC50) in assay [1] (48 hours) fell in the range of 1 to 10 µM.

`CCCCC1CCc2cnn([C@@H]3CCC[C@@H](c4cccc(-n5ncc(C(=O)O)c5C5CC5)c4)C3)c21` (stereo in doubt) [Example 37, 1-(3-((1,3-cis)-3-(6-Butyl-5,6-dihydrocyclopenta[c]pyrazol-1(4H)-yl)cyclohexyl)phenyl)-5-cyclopropyl-1H-pyrazole-4-carboxylic Acid]: the IC50 is 1 to 10 µM against NRF2/Keap1 and 0.1 to 1 µM on Keap1/NRF2. Moreover, in assay [1] (48 hours), the EC50 fell in the range of 1 to 10 µM.

Regarding `O=C(O)c1cnn(-c2cccc(C3CCC(n4ncc5c4CCCC5=O)C3)c2)c1C1CC1` (stereo not drawn) [Example 15, 5-Cyclopropyl-1-{3-[3-(4-oxo-4,5,6,7-tetrahydro-indazol-1-yl)-cyclopentyl]-phenyl}-1H-pyrazole-4-carboxylic Acid], the 50% inhibitory concentration (IC50) fell in the range of 1 to 10 µM against NRF2/Keap1 and 0.1 to 1 µM on Keap1/NRF2. Besides, in assay [1] (Homo sapiens, BEAS-2B, 48 h), the EC50 was in the range of 1 to 10 µM.

For the compound `O=C(O)c1cnn(-c2cccc(C3CCCC(C(=O)N4CCCCCC4)C3)c2)c1C1CC1` (stereo not drawn) [Example 20, 1-(3-(3-(Azepane-1-carbonyl)cyclohexyl)phenyl)-5-cyclopropyl-1H-pyrazole-4-carboxylic Acid], the figures for the concentration for half-maximal inhibition (IC50) on NRF2/Keap1 and on Keap1/NRF2 were 1 to 10 µM and 0.1 to 1 µM, respectively. In assay [1] (Homo sapiens, BEAS-2B, 48 h), this compound returned a 50% effective concentration (EC50) of 1 to 10 µM.

Take `CN(C(=O)C1CCCC(c2cccc(-n3ncc(C(=O)O)c3C3CC3)c2)C1)C1CCCCC1` (stereo not drawn) [Example 21, 1-(3-(3-(Cyclohexyl(methyl)carbamoyl)cyclohexyl)phenyl)-5-cyclopropyl-1H-pyrazole-4-carboxylic Acid]: the figures for the IC50 at NRF2/Keap1 and against Keap1/NRF2 were 1 to 10 µM and 0.1 to 1 µM, respectively. Besides, the 50% effective concentration (EC50) in assay [1] (Homo sapiens, BEAS-2B, 48 h) fell in the range of 1 to 10 µM.

As for `CCCC1CCCCC1N(C)C(=O)C1CCCC(c2cccc(-n3ncc(C(=O)O)c3C3CC3)c2)C1` (stereo not drawn) [Example 22, 5-Cyclopropyl-1-(3-(3-(methyl(2-propylcyclohexyl)carbamoyl)cyclohexyl)phenyl)-1H-pyrazole-4-carboxylic Acid], the IC50 at NRF2/Keap1 was 1 to 10 µM; against Keap1/NRF2 it was 0.1 to 1 µM. The compound further returned an EC50 in assay [1] (Homo sapiens, BEAS-2B, 48 h) of 1 to 10 µM.

Broadly, the IC50 is the concentration that gives 50% inhibition. Low readings indicate inhibition by little substance, high ones a need for much substance. A word on the EC50: it is the midpoint of the concentration-response curve. The low end stands for an effect from little substance, the high end for a need for much substance.
